In PubChem BioAssay AID1963838 (Molecular Pharmacology Branch, DTP, NCI, 2024):

Test system: 855422-203-R-J1-PDC complex spheroid viability
Experiment: Anticancer human tumor 855422-203-R-J1-PDC patient-derived bladder carcinoma cell line growth inhibition [POLQ]
Details: for IC50: curve of first compound; for viability, T/C: stronger effect = lower value
Summary of the method: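 Three-cell-type spheroids modelling solid tumor plus stroma served as the readout system; POL inhibitors were tested individually and in combination, concentration ranges set by clinical Cmax where known.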

[1] = second compound 0.0316 µM, first compound 0.0316 µM
[2] = second compound 0.0316 µM, first compound 0.1 µM
[3] = second compound 0.0316 µM, first compound 0.316 µM
[4] = second compound 0.0316 µM, first compound 1 µM
[5] = second compound 0.1 µM, first compound 0.0316 µM
[6] = second compound 0.1 µM, first compound 0.1 µM
[7] = second compound 0.1 µM, first compound 0.316 µM
[8] = second compound 0.1 µM, first compound 1 µM
[9] = second compound 0.316 µM, first compound 0.0316 µM
[10] = second compound 0.316 µM, first compound 0.1 µM
[11] = second compound 0.316 µM, first compound 0.316 µM
[12] = second compound 0.316 µM, first compound 1 µM
[13] = second compound 1 µM, first compound 0.0316 µM
[14] = second compound 1 µM, first compound 0.1 µM
[15] = second compound 1 µM, first compound 0.316 µM
[16] = second compound 1 µM, first compound 1 µM
[17] = second compound 3.16 µM, first compound 0.0316 µM
[18] = second compound 3.16 µM, first compound 0.1 µM
[19] = second compound 3.16 µM, first compound 0.316 µM
[20] = second compound 3.16 µM, first compound 1 µM
[21] = second compound 10 µM, first compound 0.0316 µM
[22] = second compound 10 µM, first compound 0.1 µM
[23] = second compound 10 µM, first compound 0.316 µM
[24] = second compound 10 µM, first compound 1 µM
[25] = second compound 0.0316 µM, first compound 3.16 µM
[26] = second compound 0.0316 µM, first compound 10 µM
[27] = second compound 0.1 µM, first compound 3.16 µM
[28] = second compound 0.1 µM, first compound 10 µM
[29] = second compound 0.316 µM, first compound 3.16 µM
[30] = second compound 0.316 µM, first compound 10 µM
[31] = second compound 1 µM, first compound 3.16 µM
[32] = second compound 1 µM, first compound 10 µM
[33] = second compound 3.16 µM, first compound 3.16 µM
[34] = second compound 3.16 µM, first compound 10 µM
[35] = second compound 10 µM, first compound 3.16 µM
[36] = second compound 10 µM, first compound 10 µM
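Also: spheroids exposed to compounds for seven days before readout.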

C=CCn1c(=O)c2cnc(Nc3ccc(N4CCN(C)CC4)cc3)nc2n1-c1cccc(C(C)(C)O)n1 + COC1C(OC(N)=O)C(O)C(Oc2ccc3c(O)c(NC(=O)c4ccc(O)c(CC=C(C)C)c4)c(=O)oc3c2C)OC1(C)C
IC50 (second compound 0.0316 µM): > 1 µM
IC50 (second compound 0.1 µM): > 1 µM
IC50 (second compound 0.316 µM): > 1 µM
IC50 (second compound 1 µM): > 1 µM
IC50 (second compound 3.16 µM): > 1 µM
IC50 (second compound 10 µM): > 1 µM
viability, T/C (second compound 0.0316 µM, first compound 0.00316 µM): 90.6%
viability, T/C (second compound 0.0316 µM, first compound 0.01 µM): 93.2%
viability, T/C [1]: 96.4%
viability, T/C [2]: 94.5%
viability, T/C [3]: 92.1%
viability, T/C [4]: 101%
viability, T/C (second compound 0.1 µM, first compound 0.00316 µM): 95.9%
viability, T/C (second compound 0.1 µM, first compound 0.01 µM): 94.3%
viability, T/C [5]: 91.9%
viability, T/C [6]: 107%
viability, T/C [7]: 105%
viability, T/C [8]: 99.7%
viability, T/C (second compound 0.316 µM, first compound 0.00316 µM): 98.7%
viability, T/C (second compound 0.316 µM, first compound 0.01 µM): 103%
viability, T/C [9]: 95.9%
viability, T/C [10]: 106%
viability, T/C [11]: 109%
viability, T/C [12]: 103%
viability, T/C (second compound 1 µM, first compound 0.00316 µM): 91.5%
viability, T/C (second compound 1 µM, first compound 0.01 µM): 110%
viability, T/C [13]: 102%
viability, T/C [14]: 98.9%
viability, T/C [15]: 103%
viability, T/C [16]: 93.1%
viability, T/C (second compound 3.16 µM, first compound 0.00316 µM): 107%
viability, T/C (second compound 3.16 µM, first compound 0.01 µM): 95.4%
viability, T/C [17]: 94.1%
viability, T/C [18]: 102%
viability, T/C [19]: 113%
viability, T/C [20]: 91.9%
viability, T/C (second compound 10 µM, first compound 0.00316 µM): 105%
viability, T/C (second compound 10 µM, first compound 0.01 µM): 104%
viability, T/C [21]: 101%
viability, T/C [22]: 96%
viability, T/C [23]: 94.2%
viability, T/C [24]: 90%

C=CC(=O)N1CCN(c2nc(=O)n(-c3c(C)ccnc3C(C)C)c3nc(-c4c(O)cccc4F)c(F)cc23)C(C)C1 (stereo unspecified) + Cc1cccc(N(C)C(=O)C2C(O)CCN2c2nc(C)cc(C(F)(F)F)c2C#N)c1
IC50 (second compound 0.0316 µM): > 10 µM
IC50 (second compound 0.1 µM): > 10 µM
IC50 (second compound 0.316 µM): > 10 µM
IC50 (second compound 1 µM): > 10 µM
IC50 (second compound 3.16 µM): > 10 µM
IC50 (second compound 10 µM): > 10 µM
viability, T/C [1]: 98.9%
viability, T/C [2]: 112%
viability, T/C [3]: 103%
viability, T/C [4]: 107%
viability, T/C [25]: 121%
viability, T/C [26]: 114%
viability, T/C [5]: 107%
viability, T/C [6]: 105%
viability, T/C [7]: 108%
viability, T/C [8]: 114%
viability, T/C [27]: 121%
viability, T/C [28]: 111%
viability, T/C [9]: 107%
viability, T/C [10]: 89.5%
viability, T/C [11]: 99.7%
viability, T/C [12]: 106%
viability, T/C [29]: 128%
viability, T/C [30]: 121%
viability, T/C [13]: 96.4%
viability, T/C [14]: 108%
viability, T/C [15]: 109%
viability, T/C [16]: 107%
viability, T/C [31]: 133%
viability, T/C [32]: 107%
viability, T/C [17]: 104%
viability, T/C [18]: 96%
viability, T/C [19]: 113%
viability, T/C [20]: 105%
viability, T/C [33]: 118%
viability, T/C [34]: 117%
viability, T/C [21]: 102%
viability, T/C [22]: 108%
viability, T/C [23]: 107%
viability, T/C [24]: 109%
viability, T/C [35]: 123%
viability, T/C [36]: 114%

CCc1cc2c(N3CCc4c(cc(Cn5ccnc5)cc4-c4cn(C)nc4C(F)(F)F)C3=O)cc(C)nc2c(OC)n1 + Cc1cccc(N(C)C(=O)C2C(O)CCN2c2nc(C)cc(C(F)(F)F)c2C#N)c1
IC50 (second compound 0.0316 µM): 2.91 µM
IC50 (second compound 0.1 µM): 6.15 µM
IC50 (second compound 0.316 µM): 6.91 µM
IC50 (second compound 1 µM): 7.37 µM
IC50 (second compound 3.16 µM): 9.61 µM
IC50 (second compound 10 µM): 6.32 µM
viability, T/C [1]: 102%
viability, T/C [2]: 134%
viability, T/C [3]: 134%
viability, T/C [4]: 72.5%
viability, T/C [25]: 61.1%
viability, T/C [26]: 35.2%
viability, T/C [5]: 101%
viability, T/C [6]: 144%
viability, T/C [7]: 119%
viability, T/C [8]: 91.1%
viability, T/C [27]: 66.8%
viability, T/C [28]: 39.1%
viability, T/C [9]: 126%
viability, T/C [10]: 147%
viability, T/C [11]: 103%
viability, T/C [12]: 111%
viability, T/C [29]: 70.7%
viability, T/C [30]: 39.4%
viability, T/C [13]: 119%
viability, T/C [14]: 125%
viability, T/C [15]: 113%
viability, T/C [16]: 81%
viability, T/C [31]: 71.7%
viability, T/C [32]: 42.4%
viability, T/C [17]: 135%
viability, T/C [18]: 128%
viability, T/C [19]: 143%
viability, T/C [20]: 95.3%
viability, T/C [33]: 71.4%
viability, T/C [34]: 46.1%
viability, T/C [21]: 110%
viability, T/C [22]: 132%
viability, T/C [23]: 145%
viability, T/C [24]: 98.2%
viability, T/C [35]: 73.1%
viability, T/C [36]: 36.1%
